Where a name gives a salt, the structure may show the parent alone.
Assay: Solubility studies of nalmefene HCl monohydrate in aqueous HCl (visual dissolution at 80° C.)
Format: physicochemical
Protocol: A series of nalmefene HCl monohydrate solubility experiments were carried out in aqueous HCl. Nalmefene HCl monohydrate (520 mg) was charged to a 4 mL capped vial, followed by solvent (0-6 M HCl, 780 μL, 1.5 volumes) and heated to 80° C. on a pie-block. Increasing amounts of solvent were added periodically until dissolution was achieved (determined visually).
Seven dissolution experiments were carried out.

C=C1CC[C@@]2(O)[C@H]3Cc4ccc(O)c5c4[C@@]2(CCN3CC2CC2)[C@H]1O5 [Nalmefene HCl, 17-(cyclopropylmethyl)-4,5α-epoxy-6-methylenemorphinan-3,14-diol]
Volumes needed to dissolve nalmefene HCl at 80° C. (Sample No. 0, HCl molarity 0 (water), 520 mg): Fewer than 1.5 Volumes
Volumes needed to dissolve nalmefene HCl at 80° C. (Sample No. 1, HCl molarity 1, 520 mg): 1.5 Volumes
Volumes needed to dissolve nalmefene HCl at 80° C. (Sample No. 2, HCl molarity 2, 520 mg): 2.5 Volumes
Volumes needed to dissolve nalmefene HCl at 80° C. (Sample No. 3, HCl molarity 3, 520 mg): 6.5 Volumes
Volumes needed to dissolve nalmefene HCl at 80° C. (Sample No. 4, HCl molarity 4, 520 mg): 6.5 Volumes
Volumes needed to dissolve nalmefene HCl at 80° C. (Sample No. 5, HCl molarity 5, 520 mg): 4.0 Volumes
Volumes needed to dissolve nalmefene HCl at 80° C. (Sample No. 6, HCl molarity 6, 520 mg): 3.5 Volumes
HCl molarity at which solubility is at a minimum (aqueous HCl 0-6 M): 3-4 M HCl

Source: patent publication US12668596B2, “Process for crystallizing nalmefene hydrochloride” (RHODES TECHNOLOGIES, priority 2021, dated 2026)
